Reference: patent US8178490B2, “Polybasic bacterial efflux pump inhibitors and therapeutic uses thereof” (priority 2007, dated 2012)
In brackets after ≈: the same amount, converted by molar mass.

Tests used:
[1] = tested on: P. aeruginosa PAM1723, overexpressing the MexABOprM efflux pump; type: cell-based, Pseudomonas aeruginosa; details: lowest inhibitor concentration giving antibacterial activity with levofloxacin at 1/8 of its MIC
Excerpt: (§1) EPI activity is defined as concentration of an EPI compound that is necessary to achieve ½ of a maximum theoretical effect in increase of antibiotic susceptibility due to efflux inhibition. The maximum theoretical effect, Emax, is defined as a ratio of antibacterial activity of antibiotics (minimal inhibitory concentration, MIC) of pump overexpressing vs. pump lacking strains. […] The strain PAM1723, overexpressing the MexABOprM efflux pump was used as a test strain. […] Azithromycin was used as test antibiotic to assess the EPI activity in Klebsiella pneumoniae. The strain KPM1004 overexpressing the AcrABTolC efflux pump was used as a test strain. […] Thus, EPI activity, that is assessed in K. pneumoniae, is a concentration of an EPI compound that is necessary to increase susceptibility to azithromicin of KPM1004 sixteen fold.
(§2) The EPI activity of the test compounds was assessed by the checkerboard assay (Antimicrobial Combinations, Antibiotics in Laboratory Medicine, Ed. Victor Lorian, M.D., Fourth edition, 1996, pp 333338, which is incorporated herein by reference in its entirety) using a broth microdilution method performed as recommended by the NCCLS (National Committee for Clinical Laboratory Standards (NCCLS), 1997, Methods for Dilution of Antimicrobial Susceptibility Tests for Bacteria That Grow Aerobically, Fourth Edition; Approved Standard. NCCLS Document M7A4, Vol 17 No. 2, which is incorporated herein by reference in its entirety). […] All EPI compounds were readily soluble in water and stock solutions were prepared at a final concentration of 10 mg/ml. Stock solutions were further diluted, according to the needs of the particular assay, in Mueller Hinton Broth (MHB). Stock solution was stored at −80° C. The checkerboard assay was performed in microtiter plates. […] EPIs were diluted in the axis, each row containing a single concentration of an EPI. […] The assay was performed in MHB with a final bacterial (PAM1723 or […]) inoculum of 5 times 10^5 CFU/ml (from an early log phase culture). Microtiter plates were incubated during 20 h at 35° C. and were read using a microtiter plate reader (Molecular Devices) at 650 nm as well as visual observation using a microtiter plate reading mirror.
(§3) Azithromycin potentiation activities of selected inhibitors for K. pneumoniae are reported as MPC16 values.

[2] = tested on: Klebsiella pneumoniae KPM1004 overexpressing the AcrABTolC efflux pump; assay: microbe, parasite or virus in culture; type: cell-based; details: for MPC16 (μg/mL) Azithromycin, KPM1004): lowest inhibitor concentration giving antibacterial activity with azithromycin at 1/16 of its MIC, K. pneumoniae KPM1004
Excerpt: as §1, §2, §3

[3] = Rat serum pharmacokinetics after 1.5-hour IV infusion; type: in vivo; details: […] IV infusion in 0.9% saline, total dose 2, 5, 10 or 20 mg/kg, two-compartment model
Procedure: In the experiment depicted in Table 7, above, rat serum pharmacokinetics of selected inhibitor compounds was evaluated after 1.5-hour IV infusion of 1.5 ml solution of corresponding efflux pump inhibitor in 0.9% saline. Depending on the concentration used the total infused dose was 2, 5, 10 or 20 mg/kg. A two-compartment model was used to fit the data and calculate PK parameters.

[4] = tested on: Klebsiella pneumoniae KPM1007 which lacks efflux; assay: microbe, parasite or virus in culture; type: cell-based; details: read-out: Azithromycin MIC

| Compound | MPC8 (μg/mL) (Levofloxacin, PAM1723) [1] | MPC16 (μg/mL) Azithromycin, KPM1004) [2] | pharmacokinetic profile [3] | MIC ([2]; Klebsiella pneumoniae, read-out: Azithromycin MIC) | Emax (ratio of MIC of pump overexpressing vs. pump lacking strains) ([2]; azithromycin, KPM1004 vs KPM1007) | MIC [4] |
| --- | --- | --- | --- | --- | --- | --- |
| 3-[(1S)-3-[bis(2-azaniumylethyl)carbamoyl]-1-{[(1S,2R)-1-carbamoyl-2-hydroxy-2-[4-(trifluoromethyl)phenyl]ethyl]carbamoyl}propan-1-aminium]quinolin-1-ium tetrachloride [Compound 3] | 1.25 µg/mL | 1.25 µg/mL | particularly attractive pharmacokinetic profiles | – | – | – |
| CC[C@H]1OC(=O)[C@H](C)[C@@H](O[C@H]2C[C@@](C)(OC)[C@@H](O)[C@H](C)O2)[C@H](C)[C@@H](O[C@@H]2O[C@H](C)C[C@H](N(C)C)[C@H]2O)[C@](C)(O)C[C@@H](C)CN(C)[C@H](C)[C@@H](O)[C@]1(C)O [Azithromycin, reference compound] | – | – | – | 32 µg/mL | 256 | 0.125 µg/mL (≈ 0.167 µM) |
| Cl.Cl.Cl.Cl.Cl.NCCNCCN(CCN)C(=O)C[C@H](N)C(=O)N[C@@H](CCc1ccccc1)C(=O)Nc1cnc2ccccc2c1 [Compound 188, 3-[(2S)-2-[(1S)-2-[(2-azaniumylethyl)({2-[(2-azaniumylethyl)azaniumyl]ethyl})carbamoyl]-1-formamidoethan-1-aminium]-4-phenylbutanamido]quinolin-1-ium pentachloride] | 0.6 µg/mL | 1.25 µg/mL | – | – | – | – |
